Source: the NIST ThermoML archive (doi:10.1021/je900520a)
± gives the expanded uncertainty stated by the source.

conditions: Crystal; visual observation

Structure (SMILES) | Normal melting temperature [°C]
C[C@]12C=CC(=O)N[C@@H]1CC[C@@H]1[C@@H]2CC[C@]2(C)[C@@H](C(=O)Nc3cc(C(F)(F)F)ccc3C(F)(F)F)CC[C@@H]12 [dutasteride] | 242 ± 1
CC(C)(C)NC(=O)[C@H]1CC[C@H]2[C@@H]3CC[C@H]4NC(=O)C=C[C@]4(C)[C@H]3CC[C@]12C [finasteride] | 252 ± 1
CC(C)C(=O)Nc1ccc([N+](=O)[O-])c(C(F)(F)F)c1 [flutamide] | 111 ± 1
